Columns and labels:
[1] = system: wild-type HBV; assay: microbe, parasite or virus in culture; type: cell-based, Hepatitis B virus (HBV); details: Huh-7 cells, 4th day of transfection, clevudine 0.9 μM
Protocol: About 20˜24 hours before the transfection, Huh-7 cell lines were maintained on 6-well plates to be 4×10^5 cells/well with 70˜80% confluence and then cultured. 2 hours before the transfection, the culture medium was removed from the stabilized cells and replaced with a serum-free medium containing clevudine, adefovir dipivoxil or a combined preparation of clevudine and adefovir dipivoxil in a predetermined dilution to be 2 mL/well. Using lipofectamine (Invitrogen), the cells were transfected with wild-type HBV DNA to be 2 μg per well. The concentration of antiviral agents was 0.9 μM of clevudine, 6.3 μM of adefovir dipivoxil, 0.9 μM+6.3 μM of clevudine+adefovir dipivoxil or 1.8 μM+6.3 μM of clevudine+adefovir dipivoxil. About 5 hours after the transfection, the culture medium was replaced with that treated with the antiviral agents, and then the medium was replaced every 24 hours.
On the 4th day of the transfection, the cells were washed with cold PBS and then collected. […]
Electrophoresis was carried out with the separated HBV DNA on 1% agarose gel, which was then transferred to a positively charged nylon membrane. […] An antiviral effect of the combined formulation of clevudine and adefovir dipivoxil was determined using phosphor imager compared with single treatment of clevudine or adefovir dipivoxil.

[2] = system: HBV; assay: Antiviral efficacy test in the treatment of chronic hepatitis B patients; type: in vivo; details: n=20 per group
Protocol: A total of 40 patients were divided into two groups, to one of which 30 mg of clevudine was administered daily for 24 weeks (group treated with clevudine only; n=20). To another group, a combined formulation of 30 mg of clevudine and 10 mg of adefovir dipivoxil was administered daily for 12 weeks, then administration of adefovir dipivoxil was stopped and only 30 mg of clevudine was administered daily for the remaining period (group treated with combined formulation of clevudine+adefovir dipivoxil; n=20).

[3] = system: patient-derived rtM204I mutant virus; type: cell-based, Hepatitis B virus (HBV); details: untreated control group = 100%, Huh-7 cells, 4th day, clevudine 0.9 μM, adefovir dipivoxil 6.3 μM, combination 0.9 μM+6.3 μM
Protocol: About 20˜24 hours before the transfection, Huh-7 cell lines were maintained on 6-well plates to be 4×10^5 cells/well with 70˜80% confluence and then cultured. 2 hours before the transfection, the culture medium was removed from the stabilized cells and replaced with a serum-free medium containing clevudine, adefovir dipivoxil or a combined formulation of clevudine and adefovir dipivoxil in a predetermined dilution to be 2 mL/well. Using lipofectamine (Invitrogen), the cells were transfected with HBV mutant DNA to be 2 μg per well. The concentration of antiviral agents was 0.9 μM of clevudine, 6.3 μM of adefovir dipivoxil, 0.9 μM+6.3 μM of clevudine+adefovir dipivoxil or 1.8 μM+6.3 μM of clevudine+adefovir dipivoxil. About 5 hours after the transfection, the culture medium was replaced with that treated with the antiviral agents, and then the medium was replaced every 24 hours.
On the 4th day of the transfection, the cells were washed with cold PBS and then collected. The collected cells were lysed with cold Hepes lysis buffer (1% NP-40) and then centrifuged. The supernatant was treated with nuclease to remove DNA of the transfected cells. Core protein of capsid form was precipitated with 26% PEG solution. The capsid protein was removed by 0.5% SDS solution and Proteinase K and then HBV DNA in the capsid was separated. […]

Cc1cn([C@H]2O[C@@H](CO)[C@H](O)[C@H]2F)c(=O)[nH]c1=O [clevudine, 1-(2′-deoxy-2′-fluoro-β-L-arabinofuranosyl)thymine]
inhibition at 0.9 µM ([1]; Hepatitis B virus, concentration of the combination not stated, read-out: inhibition rate of wild-type HBV replication): 34.1%
rate of wild-type HBV replication ([1]; untreated control group = 100%, adefovir dipivoxil 6.3 μM, concentration of the combination not stated (0.9 μM+6.3 μM or 1.8 μM+6.3 μM)): 65.91%
number of HBV DNA copy ([2]; 12 weeks after the administration, 30 mg clevudine daily, or 30 mg clevudine + 10 mg adefovir dipivoxil daily): −2.67 log 10 copies/mL
number of HBV DNA copy ([2]; 24 weeks after the administration, 30 mg clevudine daily for 24 weeks, or combination for 12 weeks then only 30 mg clevudine daily): −4.15 log 10 copies/mL
rate of mutant virus replication [3]: 87.43%

— patent publication US20130059812A1 (priority 2010, published 2013)
